According to patent US20240358692A1, “TREATMENT OF SCLERODERMA” (Aisa Pharma, Inc., priority 2023, published 2024):

Key:
[1] = test system: participants with SSc-RP; assay: Frequency of weekly RP attacks (all attacks; primary endpoint), patient diary; type: in vivo, human; conditions: for reduction in weekly frequency of attacks: typical Raynaud attacks
Description: Percent change from baseline evaluation for frequency of weekly RP attacks were or will be used as the primary efficacy variable. The sponsor-developed participant-informed diary will be used to record data. Frequency of weekly RP attacks is defined as the total number of RP attacks divided by the number of days with available diary data within the last 7 days of each dosing period then multiplied by 7. Total number of RP attacks during the last 7 days of screening period divided by the number of days with available data then multiplied by 7 will be used as baseline for the analysis of all periods. The variable will be calculated as follows: […]
Percent change from baseline evaluation for frequency of weekly RP attacks was and will be the primary efficacy endpoint. Frequency of weekly RP attacks is defined as the total number of RP attacks divided by the number of days with available diary data within the last 7 days of each dosing period then multiplied by 7. Total number of RP attacks during the last 7 days of screening period divided by the number of days with available data then multiplied by 7 will be used as baseline for the analysis of all periods.

[2] = test system: participants with SSc-RP; assay: SHAQ - Visual Analog Scale - Intestinal Problems; type: in vivo, human; parameters: Visual Analog Scale-Intestinal Problems, In Clinic Visit (Day 12), Mean / Visual Analog Scale-Intestinal Problems, In Clinic Visit (Day 12), Median / Visual Analog Scale-Intestinal Problems, Change from Baseline, Mean / Visual Analog Scale-Intestinal Problems, Change from Baseline, Median / SHAQ Visual Analogue Scale - Intestinal Problems, In-Clinic Visit (Day 12), Median: scale not given here
Description: The standard, validated, patient reported outcome measures tool for SSc patients, the Scleroderma Health Assessment Questionnaire (SHAQ), will be used to assess the participant qualify of life. Details are attached in the Appendix. The participant quality of life will be scored, and a disability index calculated for each questionnaire completed by the patient at Screening and each in-clinic visit. The absolute change in participant quality of life from baseline to the end of each dosing period will be calculated similar to frequency data as before.
The standard, validated, patient reported outcome measures tool for SSc patients, the SHAQ, was collected at the time points specified in the study schedules (FIG. 2 and FIGS. 4A and 4B) to assess the participant's quality of life. The SHAQ included a Raynaud's VAS that will also be reported separately.

[3] = cilnidipine 20 mg daily, n=2, ITT Part A, excluding outliers, last 7 days of dosing
[4] = cilnidipine 20 mg daily, n=2, ITT Part A, last 7 days of dosing
[5] = Any Cilnidipine (N = 17), Day 12, PP Population, Part A
[6] = Cilnidipine 10 mg, SSc patients, PP, Part A
[7] = Cilnidipine 20 mg, SSc patients, PP, Part A
[8] = Modified ITT Population-Part A, Day 12, dose cilnidipine 20 mg, tadalafil 5 mg, alone or combined as labelled

With `COCCOC(=O)C1=C(C)NC(C)=C(C(=O)OC/C=C/c2ccccc2)C1c1cccc([N+](=O)[O-])c1` (stereo not drawn) [Cilnidipine] the “Weekly RP Attacks (All Attacks) Change from Baseline, Mean” value [1, 3] was −6.67, the “Weekly RP Attacks (All Attacks) Change from Baseline, Median” value [1, 3] was −6.67 and the “Weekly RP Attacks (All Attacks) Percent Change from Baseline, Mean” value [1, 3] was −45.71%. The “Weekly RP Attacks (All Attacks) Percent Change from Baseline, Median” value [1, 3] was −45.71%, the “Weekly RP Attacks (All Attacks), Mean” value [1, 3] was 8.00 and the “Weekly RP Attacks (All Attacks), Median” value [1, 3] was 8.00. The “Weekly RP Attacks (All Attacks), Mean” value [1, 4] was 8.00, the “Weekly RP Attacks (All Attacks), Median” value [1, 4] was 8.00 and the “reduction in weekly frequency of attacks” value ([1]; cilnidipine 10 mg (dose response, n=3)) was 28%. For the same compound, the “reduction in weekly frequency of attacks” value ([1]; cilnidipine 20 mg (dose response, n=3)) was 46%, the “SHAQ Visual Analogue Scale - Intestinal Problems, Change from Baseline, Mean (SD)” value [2, 5] was −0.556 (1.7427) and the “SHAQ Visual Analogue Scale - Intestinal Problems, Change from Baseline, Median” value [2, 5] was −0.100. The “SHAQ Visual Analogue Scale - Intestinal Problems, In-Clinic Visit (Day 12), Mean (SD)” value [2, 5] was 1.121 (1.4119), the “SHAQ Visual Analogue Scale - Intestinal Problems, In-Clinic Visit (Day 12), Median” value [2, 5] was 0.600 and the “SHAQ Visual Analogue Scale - Intestinal Problems, Percent Change from Baseline, Mean (SD)” value [2, 5] was −18.65 (93.767) %. The “SHAQ Visual Analogue Scale - Intestinal Problems, Percent Change from Baseline, Median” value [2, 5] was −54.13%, the “SHAQ VAS Intestinal Problems, Change from Baseline, Max” value [2, 6] was 0.00 and the “SHAQ VAS Intestinal Problems, Change from Baseline, Median” value [2, 6] was −1.550. The “SHAQ VAS Intestinal Problems, Change from Baseline, Min” value [2, 6] was −4.40,, the “SHAQ VAS Intestinal Problems, Change from Baseline, Q1” value [2, 6] was −3.700, and the “SHAQ VAS Intestinal Problems, Change from Baseline, Q3” value [2, 6] was −0.050. For the same compound, the “SHAQ VAS Intestinal Problems, Day 12, Max” value [2, 6] was 3.80, the “SHAQ VAS Intestinal Problems, Day 12, Mean” value [2, 6] was 1.100 and the “SHAQ VAS Intestinal Problems, Day 12, Median” value [2, 6] was 0.300. The “SHAQ VAS Intestinal Problems, Day 12, Min” value [2, 6] was 0.00,, the “SHAQ VAS Intestinal Problems, Day 12, Q1” value [2, 6] was 0.000, and the “SHAQ VAS Intestinal Problems, Day 12, Q3” value [2, 6] was 2.200. For the same compound, the “SHAQ VAS Intestinal Problems, Percent Change from Baseline, Max” value [2, 6] was −44.1, the “SHAQ VAS Intestinal Problems, Percent Change from Baseline, Median” value [2, 6] was −88.00 and the “SHAQ VAS Intestinal Problems, Percent Change from Baseline, Min” value [2, 6] was −100.0,. For the same compound, the “SHAQ VAS Intestinal Problems, Percent Change from Baseline, Q1” value [2, 6] was −100.00,, the “SHAQ VAS Intestinal Problems, Percent Change from Baseline, Q3” value [2, 6] was −44.12 and the “SHAQ VAS Intestinal Problems, Change from Baseline, Max” value [2, 7] was 0.60. For the same compound, the “SHAQ VAS Intestinal Problems, Change from Baseline, Mean” value [2, 7] was 0.150, the “SHAQ VAS Intestinal Problems, Change from Baseline, Median” value [2, 7] was 0.150 and the “SHAQ VAS Intestinal Problems, Change from Baseline, Min” value [2, 7] was −0.30,. For the same compound, the “SHAQ VAS Intestinal Problems, Change from Baseline, Q1” value [2, 7] was −0.150,, the “SHAQ VAS Intestinal Problems, Change from Baseline, Q3” value [2, 7] was 0.450 and the “SHAQ VAS Intestinal Problems, Day 12, Max” value [2, 7] was 2.10. The “SHAQ VAS Intestinal Problems, Day 12, Mean” value [2, 7] was 0.850, the “SHAQ VAS Intestinal Problems, Day 12, Median” value [2, 7] was 0.650 and the “SHAQ VAS Intestinal Problems, Day 12, Min” value [2, 7] was 0.00,. For the same compound, the “SHAQ VAS Intestinal Problems, Day 12, Q1” value [2, 7] was 0.000,, the “SHAQ VAS Intestinal Problems, Day 12, Q3” value [2, 7] was 1.700 and the “SHAQ VAS Intestinal Problems, Percent Change from Baseline, Max” value [2, 7] was 40.0. For the same compound, the “SHAQ VAS Intestinal Problems, Percent Change from Baseline, Mean” value [2, 7] was −10.00, the “SHAQ VAS Intestinal Problems, Percent Change from Baseline, Min” value [2, 7] was −100.0, and the “SHAQ VAS Intestinal Problems, Percent Change from Baseline, Q1” value [2, 7] was −100.00,. The “SHAQ VAS Intestinal Problems, Percent Change from Baseline, Q3” value [2, 7] was 40.00, the “SHAQ Intestinal Difficulty, mean % change” value ([2]; Cilnidipine, pooled, n = 7 (in column Cilnidipine 20 mg), minus = improvement, Table A*) was −45% (pooled, and the “Visual Analog Scale-Intestinal Problems, Percent Change from Baseline, Median” value ([2]; Modified ITT Population-Part A, Day 12, dose cilnidipine 10 mg, tadalafil 5 mg, alone or combined as labelled) was −88.00%. The “Visual Analog Scale-Intestinal Problems, Change from Baseline, Mean” value [2, 8] was 0.300, the “Visual Analog Scale-Intestinal Problems, Change from Baseline, Median” value [2, 8] was 0.300 and the “Visual Analog Scale-Intestinal Problems, Percent Change from Baseline, Mean” value [2, 8] was 35.00%.
